Results as given in PMC4237307 (Chembiochem : a European journal of chemical biology, 2014).

Experiments:
[1] = tested on: P. berghei-luciferase sporozoites; test: Mouse liver stage malaria model, parasite load in livers by in vivo imaging; design: species or system C57BL/6 mice
[2] = tested on: liver stage P. berghei ANKA; assay type: cell-based
P. berghei = P. berghei parasitemia in mice after prophylactic treatment; assay type: in vivo; details: single oral dose 100 mg/kg b.w. before infection
PfPK5 = PfPK5 (Plasmodium falciparum, UniProt P61075); assay type: binding; details: for Percent binding to PfPK5: 10 μM compound
Chain of PfPK5 (P61075 whole entry): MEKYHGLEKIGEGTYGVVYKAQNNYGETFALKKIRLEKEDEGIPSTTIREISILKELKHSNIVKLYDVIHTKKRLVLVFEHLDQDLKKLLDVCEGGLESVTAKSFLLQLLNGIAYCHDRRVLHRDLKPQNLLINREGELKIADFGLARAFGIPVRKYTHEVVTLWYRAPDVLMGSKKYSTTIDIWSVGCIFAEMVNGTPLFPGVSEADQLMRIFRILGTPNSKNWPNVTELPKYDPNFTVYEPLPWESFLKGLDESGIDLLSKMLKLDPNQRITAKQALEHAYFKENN

[3] = mouse, in vivo
liver stage P. berghei = test: Time course of liver stage parasite inhibition; details: inhibitor added to infected liver cells
[4] = tested on: blood stage P. falciparum Dd2; test: Blood stage malaria dose-response assay; assay type: cell-based; details: read-out: Blood stage malaria IC50
[5] = tested on: liver and blood stage P. berghei; details: cited from earlier work
mTOR = details: read-out: IC50 mTOR; cited from earlier work

With Cc1nc(N)sc1-c1ccnc(Nc2ccc(N3CCOCC3)cc2)n1 [CYC-116] the “Parasite load in mouse livers vs vehicle” value ([1]; single oral dose 100 mg/kg b.w. before infection) was “significantly reduced parasite load in mouse livers”, the “Stage selectivity (blood stage IC50 vs liver stage IC50)” value [2] was “inhibited liver stage P. berghei significantly more potently than blood stage P. falciparum” and the “P. berghei parasitemia vs vehicle” value (P. berghei) was “reduction in P. berghei parasitemia”.

In the case of CN1CC[C@H](c2c(O)cc(O)c3c(=O)cc(-c4ccccc4Cl)oc23)[C@H](O)C1 [Flavopiridol], the “Percent binding to PfPK5” value (PfPK5) is reported as greater than 50%.

In the case of CNC(=O)c1cc(Oc2ccc(NC(=O)Nc3ccc(Cl)c(C(F)(F)F)c3)cc2)ccn1 [Nexavar], the “Inhibition of parasite load in liver cells” value ([2]; low micromolar concentration) is reported as “completely inhibited parasite load in liver cells”.

With Cc1ccc([N+](=O)[O-])cc1S(=O)(=O)N(C)/N=C/c1cnc2ccc(Br)cn12 [PIK-75] the “Percent binding to PfPK5” value (PfPK5) was greater than 50% and the Kd (PfPK5; read-out: Kd for PfPK5, competition binding, absence of ATP) was less than 10000 nM.

In the case of CC(C)(C)c1cnc(CSc2cnc(NC(=O)C3CCNCC3)s2)o1 [SNS-032], the Toxicity to mice [3] is reported as “relatively limited toxicity to mice” and the “Parasite load in mouse livers vs vehicle” value ([1]; single oral dose 75 mg/kg b.w. before infection) is reported as “reduce parasite load in mouse livers”.

With CCC(=O)N1CCN(c2ccc(-n3c(=O)ccc4cnc5ccc(-c6cnc7ccccc7c6)cc5c43)cc2C(F)(F)F)CC1 [Torin1] the “Parasite inhibition with 12-hour treatment” value (liver stage P. berghei) was “inhibit parasites with only a 12-hour treatment”.

In the case of Nc1ccc(-c2ccc3ncc4ccc(=O)n(-c5cccc(C(F)(F)F)c5)c4c3c2)cn1 [Torin2], the IC50 ([2]; read-out: Liver stage malaria IC50, liver stage) is given as 40 nM, the IC50 [4] is given as 1 nM and the “Activity in mouse animal model” value [5] is given as “exhibits activity against liver and blood stage P. berghei”. For the same molecule, the IC50 (mTOR) was […].

In the case of FC(F)c1nc2ccccc2n1-c1nc(N2CCOCC2)nc(N2CCOCC2)n1 [ZSTK474], the “Parasite inhibition with 12-hour treatment” value (liver stage P. berghei) is reported as “inhibit parasites with only a 12-hour treatment”.
